According to PubChem BioAssay (NCI):
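Cultured in 96-well plates, cells were exposed to test compound for 48 hours across five concentrations. GI50 is the concentration that inhibits growth by half. At the TGI there is no net growth.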

Experiments:
Assay in all cases: inhibition of tumour cell growth, NCI panel, 48 h
[1] = system: IGROV1 ovarian
[2] = system: PC-3 prostate
[3] = system: SF-268 CNS
[4] = system: HT29 colon
[5] = system: KM12 colon
[6] = system: NCI-H460 lung
[7] = system: NCI-H226 lung
[8] = system: NCI-H522 lung
[9] = system: SN12C renal
[10] = system: DU-145 prostate

S=C(NNC1=NCCCN1)Nc1ccccc1
TGI [1]: > 100 µM
TGI [2]: > 100 µM
TGI [3]: > 100 µM
TGI [4]: > 100 µM
TGI [5]: > 100 µM
TGI [6]: > 100 µM
TGI [7]: > 100 µM
TGI [8]: > 100 µM

CC(=O)Oc1ccc(N2C(=O)C3c4[nH]c5ccccc5c4C4CCC(C(C)(C)C)CC4C3C2=O)cc1 (centres undefined)
TGI [9]: 4.17 µM
TGI [10]: 12.2 µM
TGI [1]: 19.9 µM
TGI [2]: 10.4 µM
TGI [3]: 11 µM
TGI [4]: 9.38 µM
TGI [6]: 5.83 µM
TGI [7]: 26.1 µM
TGI [8]: 9.93 µM

N#C/C(=C1\N=C(c2ccccc2O)Oc2ccccc21)c1ccc([N+](=O)[O-])cc1
TGI [9]: > 100 µM
TGI [10]: > 100 µM
TGI [1]: > 100 µM
TGI [2]: > 100 µM
TGI [3]: > 100 µM
TGI [4]: > 100 µM
TGI [5]: > 100 µM
TGI [6]: > 100 µM
TGI [7]: > 100 µM

CC(O)c1c2c(cc3c1CC1(C3)Cc3cc4c(c(C(C)O)c3C1)CCC4)CCC2 (centres undefined)
TGI [9]: 32 µM
TGI [1]: 42.3 µM
TGI [2]: 34.9 µM
TGI [4]: 28.3 µM
TGI [5]: 38.4 µM
TGI [7]: 34 µM
TGI [8]: 30 µM

Cc1cc(C)c(S(=O)(=O)N[C@@H](/C=C(\Br)CO)C(C)C)c(C)c1
TGI [9]: 32 µM
TGI [10]: > 100 µM
TGI [1]: > 100 µM
TGI [2]: 48.9 µM
TGI [3]: > 100 µM
TGI [4]: > 100 µM
TGI [5]: > 100 µM
TGI [6]: 85.4 µM
TGI [8]: 37 µM

CSc1c(C(=O)Nc2ccc(C)cc2)c(N)nn1-c1ccccc1
TGI [9]: > 100 µM
TGI [10]: > 100 µM
TGI [1]: > 100 µM
TGI [2]: > 100 µM
TGI [3]: > 100 µM
TGI [4]: > 100 µM
TGI [6]: 42.9 µM
TGI [7]: > 100 µM
TGI [8]: > 100 µM

Cc1ccc(/C=C2\N=C(N3CCCCC3)NC2=O)cc1
TGI [9]: > 100 µM
TGI [10]: > 100 µM
TGI [2]: > 100 µM
TGI [3]: > 100 µM
TGI [4]: > 100 µM
TGI [5]: > 100 µM
TGI [7]: > 100 µM
TGI [8]: > 100 µM

COc1cc([C@@H]2c3cc4c(cc3[C@H](OC3OC5COC(C(C)C)OC5C(O)C3O)C3COC(=O)[C@@H]32)OCO4)cc(OC)c1O (some centres undefined)
TGI [1]: 21.8 µM
TGI [2]: 14.4 µM
TGI [3]: 35 µM
TGI [4]: 11.1 µM
TGI [5]: 39.6 µM
TGI [6]: 10.2 µM
TGI [7]: 24 µM
TGI [8]: 37.1 µM

O=C1C=C(N2CCCC2)C=C(N2CCCC2)C1
TGI [1]: > 100 µM
TGI [3]: > 100 µM
TGI [4]: > 100 µM
TGI [5]: > 100 µM
TGI [6]: > 100 µM
TGI [7]: > 100 µM
TGI [8]: > 100 µM

O=c1[nH]c2cc(C(F)(F)F)ccc2nc1Cc1ccccc1
TGI [10]: > 100 µM
TGI [1]: > 100 µM
TGI [2]: > 100 µM
TGI [3]: > 100 µM
TGI [4]: > 100 µM
TGI [5]: > 100 µM
TGI [6]: > 100 µM
TGI [7]: > 100 µM

COc1ncnc2c1cnn2Cc1cn(COCC(O)CO)nn1 (centres undefined)
TGI [9]: > 100 µM
TGI [10]: > 100 µM
TGI [1]: > 100 µM
TGI [2]: > 100 µM
TGI [3]: 35 µM
TGI [4]: > 100 µM
TGI [5]: > 100 µM
TGI [7]: > 100 µM
TGI [8]: 26.2 µM

CC(=O)Nc1ccc(Nc2cc(=O)n(C)c(=O)[nH]2)cc1
TGI [9]: > 100 µM
TGI [1]: > 100 µM
TGI [2]: > 100 µM
TGI [3]: > 100 µM
TGI [4]: > 100 µM
TGI [5]: > 100 µM
TGI [6]: > 100 µM
TGI [7]: > 100 µM
TGI [8]: > 100 µM

CC1=C2C(=O)O[C@@H](c3ccoc3)[C@]2(C)CCC1=O
TGI [9]: > 100 µM
TGI [10]: > 100 µM
TGI [1]: > 100 µM
TGI [2]: > 100 µM
TGI [5]: > 100 µM
TGI [6]: > 100 µM
TGI [7]: > 100 µM

Cc1nc(-c2ccccc2)c(C)n2c1nc1ccccc12
TGI [9]: > 100 µM
TGI [10]: > 100 µM
TGI [1]: > 100 µM
TGI [2]: > 100 µM
TGI [3]: 98.7 µM
TGI [4]: > 100 µM
TGI [5]: > 100 µM
TGI [6]: 63.3 µM
TGI [7]: > 100 µM

ClC(Cl)(Cl)C1CCOC1n1nc2ccccc2n1 (centres undefined)
TGI [9]: > 100 µM
TGI [10]: > 100 µM
TGI [1]: > 100 µM
TGI [2]: > 100 µM
TGI [3]: > 100 µM
TGI [4]: > 100 µM
TGI [6]: > 100 µM
TGI [7]: > 100 µM
TGI [8]: > 100 µM

CCOc1cc(/C=N\N(C)C)cc(/C=N\N(C)C)c1O
TGI [9]: > 100 µM
TGI [10]: > 100 µM
TGI [2]: > 100 µM
TGI [3]: 61.2 µM
TGI [4]: > 100 µM
TGI [5]: > 100 µM
TGI [6]: > 100 µM
TGI [7]: > 100 µM

O=C(O)CCC(NC(=O)c1ccc(Nc2nc3ccccc3nc2C(=O)O)cc1)C(=O)O (centres undefined)
TGI [9]: > 100 µM
TGI [10]: > 100 µM
TGI [1]: > 100 µM
TGI [3]: > 100 µM
TGI [4]: > 100 µM
TGI [5]: > 100 µM
TGI [8]: > 100 µM

N=C(/C=C/c1ccc(-c2cn3cc(/C=C/C(=N)N4CCCC4)ccc3n2)cc1)N1CCCC1
TGI [9]: > 100 µM
TGI [10]: > 100 µM
TGI [1]: > 100 µM
TGI [2]: > 100 µM
TGI [3]: > 100 µM
TGI [5]: > 100 µM
TGI [6]: > 100 µM
TGI [7]: > 100 µM
TGI [8]: > 100 µM

CCOc1ccc(N2C(=O)C3c4[nH]c5ccccc5c4C4CCC(C(C)(C)C)CC4C3C2=O)cc1 (centres undefined)
TGI [9]: > 100 µM
TGI [1]: > 100 µM
TGI [3]: > 100 µM
TGI [4]: > 100 µM
TGI [7]: > 100 µM
TGI [8]: > 100 µM

COc1cc(C2CC(c3cccc(Nc4ccncc4)c3)=NN2c2cc(Cl)cc(Cl)c2)cc(OC)c1OC (centres undefined)
GI50 [9]: 1.66 µM
TGI [9]: 3.14 µM
GI50 [10]: 1.68 µM
TGI [10]: 3.08 µM
GI50 [1]: 1.69 µM
TGI [1]: 3.25 µM
GI50 [2]: 1.57 µM
TGI [2]: 3.14 µM
GI50 [3]: 1.61 µM
TGI [3]: 3.21 µM
GI50 [5]: 1.65 µM
TGI [5]: 3.1 µM
GI50 [6]: 1.73 µM
TGI [6]: 3.28 µM

CCOC(=O)c1cccc(NC(=O)CBr)c1
TGI [9]: 0.907 µM
TGI [10]: 3.39 µM
TGI [1]: 2.77 µM
TGI [2]: 2.94 µM
TGI [4]: 3.32 µM
TGI [5]: 3.58 µM
TGI [6]: 3.46 µM
TGI [7]: 2.8 µM
TGI [8]: 0.0437 µM

O=C(c1ccc(Cl)cc1Cl)N(Cc1cccnc1)C(=S)N(Cc1cccnc1)C(=O)c1ccc(Cl)cc1Cl
TGI [9]: 18.3 µM
TGI [10]: 13 µM
TGI [2]: 7.55 µM
TGI [3]: 20.4 µM
TGI [4]: 5.52 µM
TGI [5]: 18.8 µM
TGI [6]: 39.2 µM
TGI [7]: 38.3 µM
TGI [8]: 9.8 µM

COc1cc2cc(Oc3ccc(NC(=O)Nc4ccc(F)c(C(F)(F)F)c4)cc3)c(C)nc2cc1OCCN1CCCCC1
GI50 [10]: 1.75 µM
TGI [10]: 3.2 µM
GI50 [2]: 1.45 µM
TGI [2]: 3.05 µM
GI50 [5]: 1.77 µM
TGI [5]: 3.3 µM
GI50 [6]: 1.89 µM
TGI [6]: 3.6 µM

Cc1ccc(S(=O)(=O)NC(=O)NC(CO)C(=O)O)cc1 (centres undefined)
TGI [9]: > 100 µM
TGI [10]: > 100 µM
TGI [1]: > 100 µM
TGI [2]: > 100 µM
TGI [3]: > 100 µM
TGI [4]: > 100 µM
TGI [5]: > 100 µM
TGI [6]: > 100 µM
TGI [8]: > 100 µM
